pKi: −log10 of the molar value.
What was measured:
[1] = target: Substance-P receptor (Homo sapiens, UniProt P25103); assay: Binding affinity towards Tachykinin receptor 1 in CHO cells using [3H]-Sar SP as radioligand; format: cell-based
[2] = target: T1, Substance-K receptor (Homo sapiens, UniProt P21452); assay: Binding affinity towards Tachykinin receptor 2 in CHO cells using [3H]-neurokinin A as radioligand; format: cell-based
T1 sequence (P21452 whole entry): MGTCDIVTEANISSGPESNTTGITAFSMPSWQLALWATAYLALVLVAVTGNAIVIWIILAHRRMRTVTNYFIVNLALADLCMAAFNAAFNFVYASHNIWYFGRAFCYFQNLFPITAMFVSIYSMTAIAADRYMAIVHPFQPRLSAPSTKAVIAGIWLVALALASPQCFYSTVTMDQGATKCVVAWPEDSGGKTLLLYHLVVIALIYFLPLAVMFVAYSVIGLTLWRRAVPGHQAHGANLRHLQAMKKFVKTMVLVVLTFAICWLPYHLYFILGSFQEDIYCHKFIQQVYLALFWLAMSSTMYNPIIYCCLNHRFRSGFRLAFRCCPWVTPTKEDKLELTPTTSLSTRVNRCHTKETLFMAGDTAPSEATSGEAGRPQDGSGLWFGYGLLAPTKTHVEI

[3] = target: T2, Substance-K receptor (Homo sapiens) (UniProt P21452); details: 1 uM
T2 sequence (whole entry): T1 sequence (P21452 whole entry)
Description: Inhibitory activity against Tachykinin receptor 2 at a concentration of 1 uM

[4] = target: T2, Substance-K receptor (Homo sapiens); details: 0.1 uM
Description: Inhibitory activity against Tachykinin receptor 2 at a concentration of 0.1 uM

Substance-P receptor, sequence (P25103 whole entry): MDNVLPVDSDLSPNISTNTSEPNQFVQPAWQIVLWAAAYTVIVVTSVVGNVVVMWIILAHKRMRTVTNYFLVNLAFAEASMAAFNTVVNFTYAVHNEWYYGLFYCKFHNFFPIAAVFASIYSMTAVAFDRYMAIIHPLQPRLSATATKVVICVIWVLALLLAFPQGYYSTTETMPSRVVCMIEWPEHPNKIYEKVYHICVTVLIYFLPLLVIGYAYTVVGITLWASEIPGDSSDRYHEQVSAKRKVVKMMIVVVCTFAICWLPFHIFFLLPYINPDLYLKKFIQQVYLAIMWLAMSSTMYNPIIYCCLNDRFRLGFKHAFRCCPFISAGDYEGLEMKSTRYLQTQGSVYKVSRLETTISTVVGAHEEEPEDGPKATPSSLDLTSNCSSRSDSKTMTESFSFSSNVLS

Row | SMILES | pKi [1] | pKi [2] | inhibition [3] | inhibition [4]
1 | CO/N=C(\COCc1cc(C(F)(F)F)cc(C(F)(F)F)c1)[C@@H](CCN1CCC(O)(c2ccccc2)CC1)c1ccc(Cl)c(Cl)c1 | 7.48 | 6.40 |  | 
2 | CO/N=C(/COCc1cc(C(F)(F)F)cc(C(F)(F)F)c1)C(CCN1CCC(O)(c2ccccc2)CC1)c1ccc(Cl)c(Cl)c1 (configuration not stated) | 7.60 |  | 35% | 
3 | CO/N=C(\COCc1cc(C(F)(F)F)cc(C(F)(F)F)c1)[C@H](CCN1CCC(O)(c2ccccc2)CC1)c1ccc(Cl)c(Cl)c1 | 7.70 | 8.15 |  | 
4 | CO/N=C(\COCc1cc(C(F)(F)F)cc(C(F)(F)F)c1)C(CCN1CCC(O)(c2ccccc2)CC1)c1ccc(Cl)c(Cl)c1 (configuration not stated) | 7.60 | 7.68 |  | 
5 | O/N=C(\COCc1cc(C(F)(F)F)cc(C(F)(F)F)c1)C(CCN1CCC(O)(c2ccccc2)CC1)c1ccc(Cl)c(Cl)c1 (configuration not stated) | 7.62 | 6.91 |  | 
6 | NC(=O)CNC(COCc1cc(C(F)(F)F)cc(C(F)(F)F)c1)C(CCN1CCC(O)(c2ccccc2)CC1)c1ccc(Cl)c(Cl)c1 (configuration not stated) | 8.40 | 7.47 |  | 
7 | NC(=O)CN[C@@H](COCc1cc(C(F)(F)F)cc(C(F)(F)F)c1)[C@@H](CCN1CCC(O)(c2ccccc2)CC1)c1ccc(Cl)c(Cl)c1 | 9.15 |  |  | 27%
8 | NC(=O)CN[C@@H](COCc1cc(C(F)(F)F)cc(C(F)(F)F)c1)[C@H](CCN1CCC(O)(c2ccccc2)CC1)c1ccc(Cl)c(Cl)c1 | 8.05 | 7.47 |  | 
9 | O/N=C(/COCc1cc(C(F)(F)F)cc(C(F)(F)F)c1)C(CCN1CCC(O)(c2ccccc2)CC1)c1ccc(Cl)c(Cl)c1 (configuration not stated) | 7.47 | 6.45 |  | 
10 | NC(=O)CN[C@H](COCc1cc(C(F)(F)F)cc(C(F)(F)F)c1)C(c1ccccc1)c1ccccc1 | 9.05 |  |  | 
11 | CC(=O)NC1(c2ccccc2)CCN(CC[C@H](CN(C)C(=O)c2ccccc2)c2ccc(Cl)c(Cl)c2)CC1 [SAREDUTANT] |  | 9.30 |  | 
12 | NC(=O)CN[C@H](COCc1cc(C(F)(F)F)cc(C(F)(F)F)c1)[C@@H](CCN1CCC(O)(c2ccccc2)CC1)c1ccc(Cl)c(Cl)c1 | 8.30 |  |  | 10%

Reference: ChEMBL document CHEMBL1132779, “The design and synthesis of novel NK1/NK2 dual antagonists” (Bioorg Med Chem Lett, 2000)
